Experimental data as given in patent US8466088B2, “Herbicidal compositions containing benzoylpyrazole compounds” (Ishihara Sangyo Kaisha, Ltd., priority 2007, dated 2013).
Where two headings read alike, the source gives them in different places.

Columns and labels:
velvetleaf = assay: Example 1: pot test, foliar treatment, visually observed growth inhibition of velvetleaf; format: in vivo, Abutilon theophrasti MEDIC.
Text: (§1) When the herbicidal activity in a case where two active ingredients are combined, is larger than the simple sum of the respective herbicidal activities of the two active ingredients (the expected activity), it is called a synergistic effect. The activity expected by the combination of two active ingredients can be calculated as follows (Colby S. R., “Weed”, vol. 15, p. 20-22, 1967). E=α+β−(α×β+100) where
(§2) α: growth inhibition rate when treated with x (g/ha) of herbicide X,
(§3) β: growth inhibition rate when treated with y (g/ha) of herbicide Y,
(§4) E: growth inhibition rate expected when treated with x (g/ha) of herbicide X and y (g/ha) of herbicide Y.
(§5) That is, when the actual growth inhibition rate (measured value) is larger than the growth inhibition rate by the above calculation (calculated value), the activity by the combination can be regarded as showing a synergistic effect.
(§6) Upland field soil was put into a 1/1,000,000 hectare pot, and seeds of various plants were sown. When the respective plants reached predetermined leaf stage, herbicidal compositions in predetermined amounts were diluted with water in an amount corresponding to 300 L/ha and applied for foliar treatment by a small sprayer.
(§7) Further, in accordance with the above Colby's formula, the growth inhibition rate (calculated value) was calculated. In Tables, with respect to the compound A, Compound Nos. in Table 1 or 3 are described, and with respect to other herbicidal compounds, common names are described.

various plants = assay: Example 1: pot test, foliar treatment, visually observed growth inhibition of other sown plants (Tables 5-1 to 5-137); format: in vivo; conditions: Ipomoea, foliar, ivyleaf morningglory 1.5 to 2.1 leaf stage, 14th day after application, read-out: Growth inhibition rate (%) of ivyleaf morningglory, Measured value
Text: as §1, §2, §3, §4, §5, §6
as §7, with “On the 14th to 28th day after application, the state of growth of the respective plants was visually observed to determine the growth inhibition rate (measured value) in accordance with the following evaluation standard. Further,” for “Further,”

crabgrass = assay: Example 1: pot test, foliar treatment, visually observed growth inhibition of crabgrass; format: in vivo
Text: as §1, §2, §3, §4, §5, §6, §7

[1] = Digitaria sanguinalis, foliar, read-out: Growth inhibition rate (%) of crabgrass, Measured value

CCOCN(C(=O)CCl)c1c(C)cccc1CC [Acetochlor]
inhibition at 150 g/ha (velvetleaf; Abutilon theophrasti, foliar, 2.0 to 2.5 leaf stage, 21st day after application, 150 g/ha, read-out: Growth inhibition rate (%) of velvetleaf, Measured value): 0% | inhibition at 150 g/ha (velvetleaf; Abutilon theophrasti, foliar, 3.3 to 4.2 leaf stage, 22nd day after application, 150 g/ha, read-out: Growth inhibition rate (%) of velvetleaf, Measured value): 0% | inhibition at 300 g/ha (velvetleaf; Abutilon theophrasti, foliar, 3.3 to 4.2 leaf stage, 22nd day after application, 300 g/ha, read-out: Growth inhibition rate (%) of velvetleaf, Measured value): 0% | inhibition at 100 g/ha (various plants; 100 g/ha): 0% | inhibition at 150 g/ha (various plants; 150 g/ha): 0% | inhibition at 200 g/ha (various plants; 200 g/ha): 0% | inhibition at 400 g/ha (crabgrass; Digitaria sanguinalis, foliar, 3.3 to 4.2 leaf stage, 24th day after application, 400 g/ha, read-out: Growth inhibition rate (%) of crabgrass, Measured value): 0% | inhibition at 600 g/ha (crabgrass; Digitaria sanguinalis, foliar, 3.3 to 4.2 leaf stage, 24th day after application, 600 g/ha, read-out: Growth inhibition rate (%) of crabgrass, Measured value): 0% | inhibition at 800 g/ha (crabgrass; Digitaria sanguinalis, foliar, 3.3 to 4.2 leaf stage, 24th day after application, 800 g/ha, read-out: Growth inhibition rate (%) of crabgrass, Measured value): 0% | inhibition at 1600 g/ha (crabgrass; Digitaria sanguinalis, foliar, 3.3 to 4.2 leaf stage, 24th day after application, 1600 g/ha, read-out: Growth inhibition rate (%) of crabgrass, Measured value): 0%

CNC.COc1c(Cl)ccc(Cl)c1C(=O)O [Dicamba-dimethylammonium]
Growth inhibition rate (%) of velvetleaf, Measured value (velvetleaf; 2.0 to 2.8 leaf stage, 21st day after application, 100 g/ha): 50% | Growth inhibition rate (%) of velvetleaf, Measured value (velvetleaf; 2.0 to 2.8 leaf stage, 21st day after application, 200 g/ha): 55% | Growth inhibition rate (%) of velvetleaf, Measured value (velvetleaf; 3.0 to 3.8 leaf stage, 28th day after application, 100 g/ha): 50% | Growth inhibition rate (%) of velvetleaf, Measured value (velvetleaf; 3.2 to 5.0 leaf stage, 14th day after application, 100 g/ha): 50% | Growth inhibition rate (%) of velvetleaf, Measured value (velvetleaf; 3.2 to 5.0 leaf stage, 21st day after application, 100 g/ha): 50% | Growth inhibition rate (%) of velvetleaf, Measured value (velvetleaf; 3.5 to 4.3 leaf stage, 21st day after application, 100 g/ha): 50% | Growth inhibition rate (%) of crabgrass, Measured value (crabgrass; 3.0 to 4.3 leaf stage, 21st day after application, 100 g/ha): 0% | Growth inhibition rate (%) of crabgrass, Measured value (crabgrass; 3.0 to 4.3 leaf stage, 21st day after application, 200 g/ha): 0% | Growth inhibition rate (%) of crabgrass, Measured value (crabgrass; 3.5 to 5.0 leaf stage, 22nd day after application, 100 g/ha): 0% | Growth inhibition rate (%) of crabgrass, Measured value (crabgrass; 3.5 to 5.0 leaf stage, 22nd day after application, 200 g/ha): 0% | Growth inhibition rate (%) of crabgrass, Measured value (crabgrass; 3.7 to 4.6 leaf stage, 21st day after application, 100 g/ha): 0% | Growth inhibition rate (%) of crabgrass, Measured value (crabgrass; 3.7 to 4.6 leaf stage, 21st day after application, 200 g/ha): 15%

CS(=O)(=O)c1ccc(C(=O)C2C(=O)CCCC2=O)c(Cl)c1 [Sulcotrione]
inhibition at 15 g/ha (velvetleaf; Abutilon theophrasti, foliar, read-out: Growth inhibition rate (%) of velvetleaf, Measured value, 3.2 to 4.3 leaf stage, 21st day after application, 15 g/ha): 25% | inhibition at 15 g/ha (crabgrass; [1]): 10% | inhibition at 15.6 g/ha (crabgrass; [1]): 50% | inhibition at 31 g/ha (crabgrass; [1]): 65%

COCc1c(S(C)(=O)=O)ccc(C(=O)c2cnn(C)c2O)c1C [No. 2-191]
Growth inhibition rate (%) of velvetleaf, Measured value (velvetleaf; 3.5 to 4.3 leaf stage, 21st day after application, 3.5 g/ha): 40% | Growth inhibition rate (%) of crabgrass, Measured value (crabgrass; 3.8 to 4.4 leaf stage, 21st day after application, 3.5 g/ha): 45%

CCCCCCCCSC(=O)Oc1cc(Cl)nnc1-c1ccccc1 [Pyridate]
inhibition at 200 g/ha (velvetleaf; Abutilon theophrasti, foliar, 3.2 to 4.3 leaf stage, 21st day after application, 200 g/ha, read-out: Growth inhibition rate (%) of velvetleaf, Measured value): 0% | inhibition at 100 g/ha (crabgrass; Digitaria sanguinalis, foliar, 3.0 to 4.3 leaf stage, 21st day after application, 100 g/ha, read-out: Growth inhibition rate (%) of crabgrass, Measured value): 0% | inhibition at 200 g/ha (crabgrass; Digitaria sanguinalis, foliar, 3.0 to 4.3 leaf stage, 21st day after application, 200 g/ha, read-out: Growth inhibition rate (%) of crabgrass, Measured value): 0% | inhibition at 200 g/ha (crabgrass; Digitaria sanguinalis, foliar, 3.2 to 4.3 leaf stage, 21st day after application, 200 g/ha, read-out: Growth inhibition rate (%) of crabgrass, Measured value): 0% | inhibition at 200 g/ha (crabgrass; Digitaria sanguinalis, foliar, 4.1 to 5.3 leaf stage, 20th day after application, 200 g/ha, read-out: Growth inhibition rate (%) of crabgrass, Measured value): 5%

CCc1cccc(C)c1N(C(=O)CCl)[C@@H](C)COC [S-Metolachlor, S-metolachlor, reference compound]
Growth inhibition rate (%) of velvetleaf, Measured value (velvetleaf; 2.4 to 3.2 leaf stage, on the 22nd day after application, foliar, active ingredient amount 150 g/ha): 0% | Growth inhibition rate (%) of velvetleaf, Measured value (velvetleaf; 2.5 to 3.3 leaf stage, 21st day after application, 150 g/ha): 0% | Growth inhibition rate (%) of velvetleaf, Measured value (velvetleaf; 2.5 to 3.3 leaf stage, 21st day after application, 300 g/ha): 0% | Growth inhibition rate (%) of velvetleaf, Measured value (velvetleaf; 3.0 to 3.5 leaf stage, 20th day after application, 150 g/ha): 0% | Growth inhibition rate (%) of velvetleaf, Measured value (velvetleaf; 3.0 to 3.5 leaf stage, 21st day after application, 150 g/ha): 0% | Growth inhibition rate (%) of velvetleaf, Measured value (velvetleaf; 3.0 to 3.5 leaf stage, 21st day after application, 300 g/ha): 0% | Growth inhibition rate (%) of velvetleaf, Measured value (velvetleaf; 3.0 to 3.8 leaf stage, 15th day after application, 15 g/ha): 0% | Growth inhibition rate (%) of velvetleaf, Measured value (velvetleaf; 3.2 to 5.0 leaf stage, 14th day after application, 150 g/ha): 0% | Growth inhibition rate (%) of velvetleaf, Measured value (velvetleaf; 3.3 to 4.2 leaf stage, 14th day after application, 150 g/ha): 0% | Growth inhibition rate (%) of velvetleaf, Measured value (velvetleaf; 3.3 to 4.2 leaf stage, 14th day after application, 300 g/ha): 0% | Growth inhibition rate (%) of velvetleaf, Measured value (velvetleaf; 3.5 to 4.3 leaf stage, 21st day after application, 150 g/ha): 0% | Growth inhibition rate (%) of crabgrass, Measured value (crabgrass; 4.0 to 4.5 leaf stage, 21st day after application, 300 g/ha): 8% | Growth inhibition rate (%) of crabgrass, Measured value (crabgrass; 4.0 to 5.0 leaf stage, 21st day after application, 150 g/ha): 0%
